Experimental data published in ChEMBL document CHEMBL5625279, “Synthesis and antiproliferative activity of a tetrahydrofuran analog of FR901464” (2024).

What was measured:
Assay type in all cases: functional
HCT-116 = experiment: Antiproliferative activity against human HCT-116 cells assessed as growth inhibition incubated for 3 days; conditions: HCT-116, 72 h, time 3 day
LS174T = experiment: Antiproliferative activity against human LS174T cells assessed as growth inhibition incubated for 3 days; conditions: 72 h, time 3 day
A549 = experiment: Antiproliferative activity against human A549 cells assessed as growth inhibition incubated for 3 days; conditions: A549, 72 h, time 3 day

| GI50 (HCT-116) | GI50 (A549) | SMILES | GI50 (LS174T) |
| --- | --- | --- | --- |
| 77 nM | 608 nM | COc1cccc2c1C(=O)c1c(O)c3c(c(O)c1C2=O)C[C@@](O)(C(=O)CO)C[C@@H]3O[C@H]1C[C@H](N)[C@H](O)[C@H](C)O1 [DOXORUBICIN] | 248 nM |
| 3400 nM | 8700 nM | COCO[C@@H](C)/C=C\C(=O)N[C@@H]1C[C@H](C)[C@H](C/C=C(C)/C=C/[C@@H](O)[C@H]2OC(C)(C)C[C@@]23CO3)O[C@@H]1C | 5500 nM |
| 3.1 nM | 3.9 nM | COCO[C@@H](C)/C=C\C(=O)N[C@@H]1C[C@H](C)[C@H](C/C=C(C)/C=C/[C@H]2OC(C)(C)C[C@@]3(CO3)[C@@H]2O)O[C@@H]1C | 8.4 nM |

| SMILES | GI50 (HCT-116) | GI50 (A549) | GI50 (LS174T) |
| --- | --- | --- | --- |
| CC(=O)O[C@@H](C)/C=C\C(=O)N[C@@H]1C[C@H](C)[C@H](C/C=C(C)/C=C/[C@H]2OC(C)(C)C[C@@]3(CO3)[C@@H]2O)O[C@@H]1C | 1.1 nM | 7.4 nM | 5.7 nM |
